Data from ChEMBL document CHEMBL3885861, “Open TG-GATES”.

Organism: Rattus norvegicus
Assay: Open TG-GATES - Regimen: Single
Format: toxicity, organism-based, Sprague-Dawley
Parameters: regimen Single, gender Male, age 6 weeks
Details: in vivo, po, route gavage; for gamma-GTP / ALP / ALT / AST / BUN / CRE / Ca / Cl / DBIL / GLC / IP / K / LDH / Na / PL / RALB / TBIL / TC / TG / TP: tissue Plasma; for APTT / Bas / Eos / Fbg / Hb / Ht / Lym / MCH / MCHC / MCV / Mono / Neu / PT / Plat / RBC / Ret: tissue Blood; for KIDNEY_L / KIDNEY_R / KIDNEY_TOTAL: tissue Kidney; for LIVER: tissue Liver
[1] = 100 mg/kg, 24 h, dose level Low

## COc1ccc2[nH]c([S+]([O-])Cc3ncc(C)c(OC)c3C)nc2c1 (centres undefined) [OMEPRAZOLE]
0 mg/kg, 24 h, dose level Control
  gamma-GTP: 1.4 IU/L
100 mg/kg, 3 h, dose level Low
  TERMINAL_BW: 221.4 g
  APTT: 18.4 s
  Bas: 0%
  Eos: 1.2%
  Fbg: 209.8 mg/dL
  Hb: 12.8 g/dL
  Ht: 37.6%
  Lym: 77.2%
  MCH: 21.2 pg
  MCHC: 34.1%
  MCV: 62.2 fL
  Mono: 3.4%
  Neu: 18%
  PT: 12.6 s
  Plat: 122.2 x10_4/uL
  RBC: 603.6 x10_4/ul
  Ret: 6.9%
  KIDNEY_L: 1 g
  KIDNEY_R: 1 g
  KIDNEY_TOTAL: 2 g
  LIVER: 10.2 g
  ALP: 983 IU/L
  ALT: 33.8 IU/L
  AST: 73.6 IU/L
  BUN: 11.6 mg/dL
  CRE: 0.4 mg/dL
  Ca: 10.6 mg/dL
  Cl: 100.6 meq/L
  DBIL: 0.078 mg/dL
  GLC: 201.4 mg/dL
  IP: 9.1 mg/dL
  K: 4 meq/L
  LDH: 180.6 IU/L
  Na: 140.2 meq/L
  PL: 144.8 mg/dL
  RALB: 3.3 g/dL
  TBIL: 0.1 mg/dL
  TC: 74.2 mg/dL
  TG: 86.6 mg/dL
  TP: 5.4 g/dL
  gamma-GTP: 0.8 IU/L
100 mg/kg, 6 h, dose level Low
  TERMINAL_BW: 217.8 g
  APTT: 19.2 s
  Bas: 0%
  Eos: 1%
  Fbg: 217 mg/dL
  Hb: 13.2 g/dL
  Ht: 38.6%
  Lym: 76%
  MCH: 21.1 pg
  MCHC: 34.2%
  MCV: 61.7 fL
  Mono: 4%
  Neu: 18.8%
  PT: 12.9 s
  Plat: 114.2 x10_4/uL
  RBC: 626.4 x10_4/ul
  Ret: 6.5%
  KIDNEY_L: 1 g
  KIDNEY_R: 1 g
  KIDNEY_TOTAL: 2 g
  LIVER: 10.1 g
  ALP: 849 IU/L
  ALT: 32 IU/L
  AST: 65 IU/L
  BUN: 9.4 mg/dL
  CRE: 0.4 mg/dL
  Ca: 10.6 mg/dL
  Cl: 102.4 meq/L
  DBIL: 0.074 mg/dL
  GLC: 197.8 mg/dL
  IP: 9.4 mg/dL
  K: 4 meq/L
  LDH: 219.6 IU/L
  Na: 141 meq/L
  PL: 159.6 mg/dL
  RALB: 3.3 g/dL
  TBIL: 0.1 mg/dL
  TC: 86.2 mg/dL
  TG: 83.4 mg/dL
  TP: 5.4 g/dL
  gamma-GTP: 1 IU/L
100 mg/kg, 9 h, dose level Low
  TERMINAL_BW: 217.8 g
  APTT: 20.7 s
  Bas: 0%
  Eos: 0.8%
  Fbg: 217.6 mg/dL
  Hb: 12.9 g/dL
  Ht: 37.5%
  Lym: 76.8%
  MCH: 20.9 pg
  MCHC: 34.5%
  MCV: 60.6 fL
  Mono: 3.4%
  Neu: 18.4%
  PT: 12.8 s
  Plat: 130.5 x10_4/uL
  RBC: 620.2 x10_4/ul
  Ret: 6.8%
  KIDNEY_L: 1 g
  KIDNEY_R: 1 g
  KIDNEY_TOTAL: 2.1 g
  LIVER: 9.7 g
  ALP: 826.2 IU/L
  ALT: 28.8 IU/L
  AST: 56.8 IU/L
  BUN: 9 mg/dL
  CRE: 0.3 mg/dL
  Ca: 10.3 mg/dL
  Cl: 101 meq/L
  DBIL: 0.066 mg/dL
  GLC: 197.4 mg/dL
  IP: 10.1 mg/dL
  K: 4 meq/L
  LDH: 171.6 IU/L
  Na: 140 meq/L
  PL: 135.8 mg/dL
  RALB: 3.3 g/dL
  TBIL: 0.1 mg/dL
  TC: 71.2 mg/dL
  TG: 68.6 mg/dL
  TP: 5.4 g/dL
  gamma-GTP: 1 IU/L
[1]
  TERMINAL_BW: 234.1 g
  APTT: 19.3 s
  Bas: 0%
  Eos: 1%
  Fbg: 216.2 mg/dL
  Hb: 12.8 g/dL
  Ht: 37.6%
  Lym: 84.4%
  MCH: 21.2 pg
  MCHC: 34%
  MCV: 62.2 fL
  Mono: 2.4%
  Neu: 12%
  PT: 12.6 s
  Plat: 130.1 x10_4/uL
  RBC: 604.8 x10_4/ul
  Ret: 6.9%
  KIDNEY_L: 1 g
  KIDNEY_R: 1.1 g
  KIDNEY_TOTAL: 2.1 g
  LIVER: 11.2 g
  ALP: 851.2 IU/L
  ALT: 28.4 IU/L
  AST: 57.8 IU/L
  BUN: 15.8 mg/dL
  CRE: 0.4 mg/dL
  Ca: 10.6 mg/dL
  Cl: 101 meq/L
  DBIL: 0.092 mg/dL
  GLC: 209.4 mg/dL
  IP: 9.3 mg/dL
  K: 4.4 meq/L
  LDH: 195.8 IU/L
  Na: 140.2 meq/L
  PL: 145.4 mg/dL
  RALB: 3.2 g/dL
  TBIL: 0.1 mg/dL
  TC: 77.8 mg/dL
  TG: 89.8 mg/dL
  TP: 5.3 g/dL
